# Assay results taken from US7105534B2, “Imidazo[1,2-α]pyridine ether compounds as ion channel modulators” (Cardiome Pharma Corp., priority 2000, dated 2006).
# Legend:
# Sprague Dawley rats = experiment: Cardiovascular and behavioral effects: ECG changes during i.v. infusion in conscious rats; format: in vivo, rat
# Protocol: Preparative surgery is performed in Sprague Dawley rats weighing 200–300 gm and anaesthetized with 65 mg/kg (i.p.) pentobarbital. The femoral artery and vein are cannulated using polyethylene (PE)-10 tubing. Prior to surgery, this PE-10 tubing had been annealed to a wider gauge (PE-50) tubing for externalization. The cannulated PE-10/PE-50 tubing is passed through a trocar and exteriorised together with three (lead II) limb ECG leads (see below). The trocar is threaded under the skin of the back and out through a small incision at the mid-scapular region. A ground ECG electrode is inserted subcutaneously using a 20 gauge needle with the lead wire threaded through it. To place the other ECG electrodes, a small incision is made in the anterior chest region over the heart and ECG leads are inserted into the subcutaneous muscle layer in the region of the heart using a 20 guage needle. Other ECG leads are inserted into the subcutaneous muscle layer in the region near the base of the neck and shoulder (right side). The animal is returned to a clean recovery-cage with free access to food and water. The treatment and observational period for each animal commenced after a 24-hour recovery period.
# A 15 min observational period is recorded followed by the intravenous infusion regime of the test compound at an initial dose of 2.0 μmol/kg/min (at 1 ml/hr). This rate is doubled every 5 minutes until one of the following effects is observed:
# Blood pressure (BP), heart rate (HR) and ECG variables are continuously recorded while behavioral responses are also monitored and the total accumulative drug dose and drug infusion rate at which the response (such as convulsion, piloerection, ataxia, restlessness, compulsive chewing, lip-smacking, wet dog shake etc.) occurred are recorded.
# Electrocardiograph (ECG) parameters: PR, QRS, QT1 (peak of T-wave), QT2 (midpoint of T-wave deflection) and hemodynamic parameters: BP and HR are analyzed using the automated analysis function in LabView (National Instruments) with a customized autoanalysis software (Nortran Pharmaceuticals). The infused dose producing 25% from control (D25) for all recorded ECG variables is determined.
# Table 2 describes the results of the tests as D25 (micromol/kg) which are the doses required to produce a 25% increase in the ECG parameter measured (ne=not estimated). The increases in P-R interval and QRS interval indicate cardiac sodium channel blockade while the increase in Q-T interval indicates cardiac potassium channel blockade.
# Kv1.5 = molecular target: T1, Kv1.5 (Homo sapiens, UniProt P22460); experiment: Patch-clamp inhibition of cloned ion channel current in transfected HEK cells: Kv1.5; format: cell-based; conditions: steady-state current, -80 mV to +60 mV
# T1 construct: expressed in transfected cells; host or cells: HEK cells, transient transfection, vector pCDNA3
# Procedure, shortened: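 Whole-cell patch clamp at 22–23 °C on transiently transfected HEK cells, compound 0.5–100 μM, pulses every 4 s. Na+: peak current, −100 mV holding, −30 mV for 10 ms; Kv1.5 (steady-state) and Kv4.2 (integrated): −80 mV holding, +60 mV for 200 ms. IC50 by Hill fit, 4–6 cells.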
# T1 sequence (P22460 whole entry): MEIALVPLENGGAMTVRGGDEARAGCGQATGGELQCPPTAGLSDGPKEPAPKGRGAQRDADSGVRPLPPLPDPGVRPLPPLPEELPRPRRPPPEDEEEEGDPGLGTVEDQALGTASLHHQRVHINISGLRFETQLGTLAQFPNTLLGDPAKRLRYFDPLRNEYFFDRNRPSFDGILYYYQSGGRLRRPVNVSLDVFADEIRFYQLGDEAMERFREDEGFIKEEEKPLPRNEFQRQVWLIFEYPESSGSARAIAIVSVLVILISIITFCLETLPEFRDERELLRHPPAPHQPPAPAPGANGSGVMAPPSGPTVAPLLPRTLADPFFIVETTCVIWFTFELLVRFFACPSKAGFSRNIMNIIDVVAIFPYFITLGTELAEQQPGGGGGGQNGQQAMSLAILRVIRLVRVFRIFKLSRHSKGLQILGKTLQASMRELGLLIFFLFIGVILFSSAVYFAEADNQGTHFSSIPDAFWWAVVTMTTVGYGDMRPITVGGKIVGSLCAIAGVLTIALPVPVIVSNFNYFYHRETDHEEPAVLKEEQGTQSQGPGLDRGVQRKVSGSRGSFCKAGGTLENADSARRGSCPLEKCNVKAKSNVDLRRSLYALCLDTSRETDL
smiles,measurement,setting,value
"COc1ccc(CCCOc2cccn3cc(C)nc23)cc1OC [Compound 3, 8-[3-(3,4-DIMETHOXYPHENYL)PROPOXY]-2-METHYLIMIDAZO[1,2-α]PYRIDINE MONOHYDROCHLORDE]",D25 QT (dose required to produce a 25% increase in Q-T interval),Sprague Dawley rats; indicates cardiac potassium channel blockade,16 µmol/kg
same,D25 PR (dose required to produce a 25% increase in P-R interval),Sprague Dawley rats; indicates cardiac sodium channel blockade,21 µmol/kg
same,IC50,Kv1.5,6 µM
